Our source for the EC50 and CC50 values is patent US11639350B2, “Heteroaryldihydropyrimidine derivatives and methods of treating hepatitis B infections” (Janssen Pharmaceutica NV, priority 2018, dated 2023).

Molecules are shown by their SMILES. Where two headings read alike, the source gives them in different places.

One series deals with HBV. In words: HBV inhibitory activity: HBV DNA in the culture medium of HepG2.2.15 cells by q-PCR. The format is cell-based. The conditions noted are these: HepG2.2.15 cells, 6 days of compound treatment, HBV DNA in culture medium by q-PCR, highest concentration 10 μM, read-out: EC50. The essentials:
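Supernatant HBV DNA quantified by q-PCR after a 6-day compound exposure, with one mid-course medium change, of HepG2.2.15 cells (stably integrated HBV; 40,000 per well, 2% FBS). Eight-point 3-fold series topped at 10 μM for antiviral EC50; separate plates of 5,000 cells per well with 100 μM top give CC50.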

Another series relates to HepG2.2.15 cells. Briefly: Cytotoxicity determination in HepG2.2.15 cells (CCK-8). Type of series: cell-based. The conditions noted are these: 6 days of compound treatment, CCK-8, highest concentration 100 μM. The method in brief:
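CC50 is from CCK-8 absorbance (450 nm, 630 nm reference) after 2.5 h with reagent. Before that, compounds were applied for six days, top concentration 100 μM, eight threefold dilutions, one mid-course medium change, to stably HBV-integrated HepG2.2.15 cells plated at 5,000/well in 2% FBS.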

A word on the EC50: it is the concentration giving half of the maximal effect. In general, CC50 refers to the concentration giving 50% cytotoxicity. The low end stands for harm at low concentration, the high end for better tolerance by the cells. Take `COC(=O)C1=C(C2COC(CO)C2)NC(c2nccs2)=NC1c1cccc(F)c1Cl` (single isomer, unassigned) [Compound 219H, Methyl 4-(2-chloro-3-fluorophenyl)-6-(5-(hydroxymethyl)-tetrahydrofuran-3-yl)-2-(thiazol-2-yl)-1,4-dihydropyrimidine-5-carboxylate]: in the series with HBV, the EC50 stood at 334 nM. For the same molecule, in the series on HepG2.2.15 cells, the CC50 was 1500 nM.

`COC(=O)C1=C(C2CCN(S(=O)(=O)[C@H]3C[C@H](C(=O)O)C3)CC2)NC(c2nccs2)=NC1c1ccc(F)c(F)c1Cl` (single isomer, unassigned) [Compound 232X, (trans)-3-((4-(6-(2-Chloro-3,4-difluorophenyl)-5-(methoxycarbonyl)-2-(thiazol-2-yl)-3,6-dihydropyrimidin-4-yl)piperidin-1-yl)sulfonyl)cyclobutanecarboxylic Acid]: in the series on HBV, the EC50 came to 105 nM. In the series on HepG2.2.15 cells, this molecule had a CC50 of 70000 nM.

Take `CCCS(=O)(=O)N1CCC(C2=C(C(=O)OC)C(c3ccc(F)cc3Cl)N=C(c3nccs3)N2)C1` (single isomer, unassigned) [Compound 256A, Methyl 4-(2-chloro-4-fluorophenyl)-6-(−1-(propylsulfonyl)pyrrolidin-3-yl)-2-(thiazol-2-yl)-1,4-dihydropyrimidine-5-carboxylate]: in the series with HBV, the EC50 worked out at 82 nM. In the series with HepG2.2.15 cells, this molecule came in with a CC50 greater than 100000 nM.

In the case of `CCCS(=O)(=O)N1CCC(C2=C(C(=O)OC)C(c3ccc(F)cc3Cl)N=C(c3nccs3)N2)C1` (single isomer, unassigned) [Compound 256D, Methyl 4-(2-chloro-4-fluorophenyl)-6-(−1-(propylsulfonyl)pyrrolidin-3-yl)-2-(thiazol-2-yl)-1,4-dihydropyrimidine-5-carboxylate], the EC50 in the series on HBV is 964 nM. For the same molecule, half-maximal cytotoxicity with HepG2.2.15 cells (CC50) was put at 22900 nM.

With `CCOC(=O)C1=C([C@@H]2CC[C@H](C(=O)O)OC2)NC(c2nccs2)=NC1c1ccc(F)cc1Cl` (single isomer, unassigned) [Compound 265H, (cis)-5-(−6-(2-Chloro-4-fluorophenyl)-5-(ethoxycarbonyl)-2-(thiazol-2-yl)-3,6-dihydropyrimidin-4-yl)tetrahydro-2H-pyran-2-carboxylic Acid], the 50% effective concentration (EC50) with HBV worked out at 214 nM. The CC50 in the series with HepG2.2.15 cells was greater than 100000 nM.

`CCOC(=O)C1=C(C2CCN(S(=O)(=O)C3CC(C)(C(=O)O)C3)CC2)NC(c2nccs2)=NC1c1ccc(F)cc1Br` (single isomer, unassigned) [Compound 282C, (trans)-3-((4-(−6-(2-Bromo-4-fluorophenyl)-5-(ethoxycarbonyl)-2-(thiazol-2-yl)-3,6-dihydropyrimidin-4-yl)piperidin-1-yl)sulfonyl)-1-methylcyclobutanecarboxylic Acid]: the EC50 with HBV is 15 nM. The CC50 in the series on HepG2.2.15 cells is 15700 nM.

For `CCOC(=O)C1=C(C2CCN(S(=O)(=O)C3CC(C)(C(=O)O)C3)CC2)NC(c2nccs2)=NC1c1ccc(F)cc1Br` (single isomer, unassigned) [Compound 282D, (cis)-3-((4-(6-(2-Bromo-4-fluorophenyl)-5-(ethoxycarbonyl)-2-(thiazol-2-yl)-3,6-dihydropyrimidin-4-yl)piperidin-1-yl)sulfonyl)-1-methylcyclobutanecarboxylic Acid], in the series with HBV, the EC50 was determined as 39 nM. For the same molecule, it took 11200 nM to reach half-maximal cytotoxicity with HepG2.2.15 cells (CC50).

Turning to `COC(=O)C1=C([C@H]2CC[C@H](NS(C)(=N)=O)CC2)NC(c2nccs2)=NC1c1ccc(F)cc1Cl` (single isomer, unassigned) [Compound 287B, Methyl 4-(2-chloro-4-fluorophenyl)-6-((trans)-4-(methylsulfonoimidamido)cyclohexyl)-2-(thiazol-2-yl)-1,4-dihydropyrimidine-5-carboxylate], the EC50 in the series on HBV (Hepatitis B virus, HepG2.2.15, 144 h) was determined as 72 nM. For the same molecule, the cytotoxic concentration (CC50) in the series with HepG2.2.15 cells was 23100 nM.

Regarding `COC(=O)C1=C([C@H]2CC[C@H](NS(C)(=N)=O)CC2)NC(c2nccs2)=NC1c1ccc(F)cc1Cl` (single isomer, unassigned) [Compound 287D, Methyl 4-(2-chloro-4-fluorophenyl)-6-((trans)-4-(methylsulfonoimidamido)cyclohexyl)-2-(thiazol-2-yl)-1,4-dihydropyrimidine-5-carboxylate], the EC50 in the series with HBV came out at 67 nM. This molecule displayed a CC50 in the series on HepG2.2.15 cells of 60000 nM.

`COC(=O)C1=C(C2CCC(NC(C)=O)C2)NC(c2nccs2)=NC1c1ccc(F)c(F)c1Cl` (single isomer, unassigned) [Compound 300B, Methyl 6-(−3-acetamidocyclopentyl)-4-(2-chloro-3,4-difluorophenyl)-2-(thiazol-2-yl)-1,4-dihydropyrimidine-5-carboxylate]: in the series on HBV, the EC50 amounted to 13 nM. Further, it took 28600 nM to reach half-maximal cytotoxicity in the series with HepG2.2.15 cells (CC50).

`COC(=O)C1=C(C2CCC(NC(C)=O)C2)NC(c2nccs2)=NC1c1ccc(F)c(F)c1Cl` (single isomer, unassigned) [Compound 300D, Methyl 6-(−3-acetamidocyclopentyl)-4-(2-chloro-3,4-difluorophenyl)-2-(thiazol-2-yl)-1,4-dihydropyrimidine-5-carboxylate]: in the series on HBV, the EC50 is 14 nM. Also, the midpoint of cytotoxicity in the series on HepG2.2.15 cells, the CC50, lay at 12600 nM.

On to `COC(=O)C1=C(C2CCC(NC(C)=O)C2)NC(c2nccs2)=NC1c1ccc(F)c(F)c1Cl` (single isomer, unassigned) [Compound 300G, Methyl 6-(−3-acetamidocyclopentyl)-4-(2-chloro-3,4-difluorophenyl)-2-(thiazol-2-yl)-1,4-dihydropyrimidine-5-carboxylate], for which, in the series with HBV, the EC50 is 122 nM. In the series with HepG2.2.15 cells, this molecule yielded a CC50 of 23900 nM.

For the molecule `CCOC(=O)C1=C([C@H]2CCC[C@H](C(=O)O)CC2)NC(c2nccs2)=NC1c1ccc(F)c(F)c1Cl` (single isomer, unassigned) [Compound 302F, (trans)-4-(−6-(2-Chloro-3,4-difluorophenyl)-5-(ethoxycarbonyl)-2-(thiazol-2-yl)-3,6-dihydropyrimidin-4-yl)cycloheptanecarboxylic Acid], in the series on HBV, the EC50 worked out at 37 nM. Also, in the series on HepG2.2.15 cells, the half-maximal cytotoxic concentration (CC50) turned out to be 10300 nM.

As to `COC(=O)C1=C(C2CCN(S(=O)(=O)CC(O)CO)CC2)NC(c2nccs2)=NC1c1ccc(F)cc1Cl` (single isomer, unassigned) [Compound 305B, Methyl 4-(2-chloro-4-fluorophenyl)-6-(1-((2,3-dihydroxypropyl)sulfonyl)piperidin-4-yl)-2-(thiazol-2-yl)-1,4-dihydropyrimidine-5-carboxylate], the EC50 in the series with HBV was 25 nM. The molecule also yielded a CC50 with HepG2.2.15 cells of 34500 nM.

Turning to `CCOC(=O)C1=C(C2CCN(S(=O)(=O)C3CC(C)(C(=O)O)C3)CC2)NC(c2nccs2)=NC1c1cccc(F)c1Cl` (single isomer, unassigned) [Compound 321A, (trans)-3-((4-(6-(2-Chloro-3-fluorophenyl)-5-(ethoxycarbonyl)-2-(thiazol-2-yl)-3,6-dihydropyrimidin-4-yl)piperidin-1-yl)sulfonyl)-1-methylcyclobutanecarboxylic Acid], the EC50 in the series with HBV amounted to 12 nM. The half-maximal cytotoxic concentration (CC50) in the series with HepG2.2.15 cells was 17200 nM.

`CCOC(=O)C1=C(C2CCN(S(=O)(=O)C3CC(C)(C(=O)O)C3)CC2)NC(c2nccs2)=NC1c1cccc(F)c1Cl` (single isomer, unassigned) [Compound 321B, (cis)-3-((4-(6-(2-Chloro-3-fluorophenyl)-5-(ethoxycarbonyl)-2-(thiazol-2-yl)-3,6-dihydropyrimidin-4-yl)piperidin-1-yl)sulfonyl)-1-methylcyclobutanecarboxylic Acid]: the EC50 in the series with HBV was determined as 60 nM. This molecule displayed a CC50 in the series on HepG2.2.15 cells of 15800 nM.

For the molecule `COC(=O)C1=C(C2CCN(S(=O)(=O)C3CC(C)(C(=O)OC)C3)CC2)NC(c2nccs2)=NC1c1ccc(F)c(F)c1Cl` (single isomer, unassigned) [Compound 323C, trans-methyl 4-(2-chloro-3,4-difluorophenyl)-6-(1-((3-(methoxycarbonyl)-3-methylcyclobutyl)sulfonyl)piperidin-4-yl)-2-(thiazol-2-yl)-1,4-dihydropyrimidine-5-carboxylate], in the series with HBV, the EC50 was determined as 10 nM. It took 24100 nM to reach half-maximal cytotoxicity with HepG2.2.15 cells (CC50).

Turning to `COC(=O)C1=C(C2CCN(S(=O)(=O)C3CC(C)(C(=O)OC)C3)CC2)NC(c2nccs2)=NC1c1ccc(F)c(F)c1Cl` (single isomer, unassigned) [Compound 323D, cis-methyl 4-(2-chloro-3,4-difluorophenyl)-6-(1-((3-(methoxycarbonyl)-3-methylcyclobutyl)sulfonyl)piperidin-4-yl)-2-(thiazol-2-yl)-1,4-dihydropyrimidine-5-carboxylate], the half-maximal effective concentration (EC50) in the series on HBV was 30 nM. The molecule further gave a CC50 in the series with HepG2.2.15 cells of 28600 nM.

Take `COC(=O)C1=C(C2CCN(S(=O)(=O)C3CC(O)C3)CC2)NC(c2nccs2)=NC1c1ccc(F)cc1Cl` (single isomer, unassigned) [Compound 335B, Methyl 4-(2-chloro-4-fluorophenyl)-6-(1-((3-hydroxycyclobutyl)sulfonyl)piperidin-4-yl)-2-(thiazol-2-yl)-1,4-dihydropyrimidine-5-carboxylate]: in the series on HBV, the EC50 was 13 nM. The same molecule returned a CC50 in the series on HepG2.2.15 cells of 15200 nM.

With `CCOC(=O)C1=C(C2CCN(S(=O)(=O)[C@H]3C[C@H](C(=O)O)C3)CC2)NC(c2nccs2)=NC1c1ccc(F)c(F)c1C` (single isomer, unassigned) [Compound 343C, (trans)-3-((4-(6-(3,4-difluoro-2-methylphenyl)-5-(ethoxycarbonyl)-2-(thiazol-2-yl)-3,6-dihydropyrimidin-4-yl)piperidin-1-yl)sulfonyl)cyclobutanecarboxylic Acid], the 50% effective concentration (EC50) in the series with HBV is 14 nM. This molecule gave a CC50 in the series with HepG2.2.15 cells of 25200 nM.
